Experimental data taken from US9005670B2, “Use of histone acetyltransferase inhibitors as novel anti-cancer therapies” (The Johns Hopkins University, priority 2010, dated 2015).

Experiments:
p300 HAT [1] = biological target: T1, p300 HAT (Homo sapiens, UniProt Q09472, DEL1529-1560/M1652G); assay: direct radioactive p300 HAT assay (14C-acetyl-CoA transfer to H4-15); format: biochemical
T1 construct: A variant of the HAT domain of p300 (residues 1287 to 1652) was expressed as a fusion; a C-terminal peptide corresponding to residues 1653-1666 of p300; made in house; host or cells: E. coli BL21(RIL)-DE3; C-terminal peptide by solid phase synthesis
T1 sequence (Q09472 with tags, fused parts or gaps DEL1529-1560/M1652G limits assumed): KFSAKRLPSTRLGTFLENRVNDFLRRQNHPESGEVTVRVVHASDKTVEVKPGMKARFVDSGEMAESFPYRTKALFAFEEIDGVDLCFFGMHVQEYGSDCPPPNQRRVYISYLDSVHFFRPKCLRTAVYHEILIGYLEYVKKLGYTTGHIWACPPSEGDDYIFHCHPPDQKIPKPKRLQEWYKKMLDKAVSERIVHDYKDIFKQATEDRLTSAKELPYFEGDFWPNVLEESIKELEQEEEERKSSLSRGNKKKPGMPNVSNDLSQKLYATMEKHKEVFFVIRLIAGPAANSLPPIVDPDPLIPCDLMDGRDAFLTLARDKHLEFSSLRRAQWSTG
Procedure: In this assay, production of ^14C-labeled Ac-H4-15 is monitored electrophoretically. Reactions were performed in 20 mM HEPES, pH 7.9, and contained 5 mM DTT, 80 μM EDTA, 40 μg/mL BSA, 100 μM H4-15, and 5 nM p300. […] Reactions were incubated at 30° C. for 10 minutes, initiated with addition of a 1:1 mixture of 12 C-acetyl-CoA and 14 C-acetyl-CoA to a final concentration of 20 μM, and allowed to run for 10 min at 30° C. Reactions are then quenched with addition of 14% SDS (w/v). Turnover was kept below 10%. All compounds were screened in duplicate. Samples were then loaded onto a 16% Tris-Tricine gel along with a BSA standard and run at 140 V for 90 minutes. Gels were washed and dried, and exposed in a PhosphorImager cassette for ˜2 days. Bands corresponding to Ac-H4-15 were then quantified using ImageQuant.
Reactions were performed in 20 mM HEPES, pH 7.9, and contained 5 mM DTT, 80 μM EDTA, 40 μg/mL BSA, 100 μM […], and 5 nM p300. Putative inhibitors were added over a range of concentrations, with DMSO concentration kept constant (<5%). Reactions were incubated at 30° C. for 10 minutes, then initiated with addition of a 1:1 mixture of ^12C-acetyl-CoA and ^14C-acetyl-CoA to 20 μM. After […] at 30° C., reactions were quenched with 14% SDS (w/v). All concentrations were screened in duplicate. Gels were run, washed, dried, and exposed to a PhosphorImager plate as described above, and production of Ac-H4-15 quantified. Data were fit to the following equation to obtain IC50s. […]

p300 HAT [2] = biological target: T1, p300 HAT; assay: coupled spectrophotometric p300 HAT assay; format: biochemical; conditions: for % inhibition in initial screen: compounds at 100 μM
Procedure: After completing the computational docking screen, the top 194 inhibitors were tested in a convenient spectrophotometric assay as described in Kim et al., Anal. Biochem. 280, 308 (2000). In the coupled spectrophotometric assay, the acetyltransferase reaction product CoASH becomes a substrate for alpha-ketoglutarate dehydrogenase, which converts NAD to NADH, resulting in an increase of UV absorbance at 340 nm. Screening conditions for these p300 HAT assays included substrate concentrations of 200 μM histone H4-15 peptide and 50 μM acetyl-CoA, and potential small molecule inhibitors tested at 100 μM. […] To distinguish inhibitory effects related to blockade of coupling enzyme rather than p300, assays were repeated using increased (2-fold) alpha-ketoglutarate dehydrogenase. […] The remaining compounds were then assessed in a protein aggregation-related inhibition assay as described in Feng et al., Nat. Chem. Biol. 1, 146 (2005). […] In this radioactive p300 HAT assay, ^14C transfer from ^14C-acetyl-CoA into peptide substrate is directly measured using Tris-Tricine SDSPAGE and phosphorimage analysis.
The top 194 p300 HAT inhibitor candidates identified by VLS were screened using a coupled spectrophotometric assay. In this assay, CoASH produced by the p300 reaction is used by α-ketoglutarate dehydrogenase (α-KGDH) to produce NADH, which can be monitored spectrophotometrically at 340 nm. Reactions were performed at 30° C. in […] HEPES, pH 7.9, and contained 200 μM H4-15, 200 μM TPP, 5 mM MgCl 2, 1 mM DTT, 50 μg/mL BSA, 200 μM NAD, 2.4 mM α-ketoglutarate, 200 μM acetyl-CoA, 0.1 units α-KGDH, and 100 nM p300. DMSO was kept at a constant 3.3%, and candidate compounds were screened at 100 μM. Reaction mixtures were incubated at 30° C. for 10 min prior to initiation. Reactions were initiated with addition of H4-15 and followed over the linear portion of the progress curve, which provides the initial velocity via linear regression. Percent inhibition was determined by comparison with velocity without candidate added. […] To ensure that compounds were not inhibiting α-KGDH instead of p300, compounds were assayed with 0.2 units of α-KGDH, two times the amount used in the initial screen. To ensure that compounds were not inhibiting through nonspecific aggregation, compounds were assayed in the presence of 0.01% Triton X-100.

Row | Compound | % inhibition in initial screen (p300 HAT [2]) [%] | other results
1 | CC1=NN(c2ccc(C(=O)O)cc2)C(=O)/C1=C\c1ccc(-c2ccccn2)o1 [Compound 6p, 4-(4,5-dihydro-3-methyl-5-oxy-4-((5-(pyridin-2-yl)furan-2-yl)methylene)pyrazol-1-yl)benzoic acid] |  | p300 HAT inhibition, result in words (analogs compared with C646) (p300 HAT [1]): eliminated p300 inhibitory action; melting point: 294 to 296 °C
2 | C=CCn1c(SCC(=O)O)nc2sc3c(c2c1=O)CCCC3 [Compound 5915918] | 0.0 | 
3 | O=C(O)c1ccc(Br)c(S(=O)(=O)Nc2ccc(NC(=O)c3ccccc3)cc2)c1 [Compound 5913665] | 0.0 | 
4 | Cc1nc(SCc2ccccc2)[nH]c(=O)c1CC(=O)O [Compound 6658754] | 0.0 | 
5 | CC1=NN(c2ccc(S(N)(=O)=O)cc2)C(=O)/C1=C\c1ccc(-c2cc(C)c(C)cc2[N+](=O)[O-])o1 [Compound 6g] |  | melting point: 152 to 154 °C
6 | CC1=NN(c2cccc(C(=O)O)c2)C(=O)C1=Cc1ccc(-c2cc(C)c(C)cc2[N+](=O)[O-])o1 [Compound 6e, 3-(4,5-dihydro-3-methyl-4-((5-(4,5-dimethyl-2-nitrophenyl)furan-2-yl)methylene)-5-oxopyrazol-1-yl)benzoic acid] |  | p300 HAT inhibition, result in words (analogs compared with C646) (p300 HAT [1]): well tolerated; melting point: 260 to 262 °C
7 | Cc1ccc(C(=O)Nc2cccc([N+](=O)[O-])c2)cc1S(=O)(=O)Nc1cccc(C(=O)O)c1 [Compound 5913514] | 0.0 | 
8 | COC(=O)c1cc(C)c(C)cc1-c1ccc(/C=C2/CC(=O)N(c3ccc(C(=O)O)cc3)C2=O)o1 [Compound 6r, 2-{5-[1-(4-Carboxy-phenyl)-2,5-dioxo-pyrrolidin-3-ylidenemethyl]-furan-2-yl}-4,5-dimethyl-benzoic acid methyl ester] |  | p300 HAT inhibition, result in words (analogs compared with C646) (p300 HAT [1]): retains potency for p300 inhibition; melting point: 290 to 291 °C
9 | NC(=O)c1ccccc1NC(=O)CCC(=O)O [Compound 5317891] | 0.0 | 
10 | COc1ccc(S(=O)(=O)N2CCCC(C(=O)O)C2)cc1 (stereo not shown) [Compound 7185124] | 0.0 | 
11 | Cc1nc(=O)c(-c2ccccc2)c(C)n1-c1ccccc1C(=O)O [Compound 7261568] | 0.0 | 
12 | COc1cccc(CNC(=O)C(=O)Nc2ccc(C(C)C)cc2)c1 [Compound 7076620] | 0.0 | 
13 | CC1=NN(c2ccc(C(=O)O)cc2)C(=O)/C1=C\c1ccc(-c2cc(C)c(C)cc2CO)o1 [Compound 6l, 4-(4,5-dihydro-4-((5-(2-(hydroxymethyl)-4,5-dimethylphenyl)-furan-2-yl)methylene)-3-methyl-5-oxopyrazol-1-yl)benzoic acid] |  | p300 HAT inhibition, result in words (analogs compared with C646) (p300 HAT [1]): substantial reduction in potency; melting point: 209 to 211 °C
14 | COc1cccc(NC(=O)C(=O)NCCc2ccc(OC)c(OC)c2)c1 [Compound 5574003] | 0.0 | 
15 | COC(=O)c1cc(C)c(C)cc1-c1ccc(/C=C2\C(=O)N(c3ccc(C(=O)O)cc3)N=C2C)o1 [Compound 6m, 4-(4,5-dihydro-4-((5-(4,5-dimethyl-2-methylbenzoate)furan-2-yl)methylene)-3-methyl-5-oxapyrazol-1-yl)benzoic acid] |  | p300 HAT inhibition, result in words (analogs compared with C646) (p300 HAT [1]): well tolerated; melting point: 254 to 256 °C
16 | COc1ccc(N2C(=O)CC(SCC(=O)O)C2=O)cc1 (stereo not shown) [Compound 5109125] | 0.0 | 

Row | Compound | % inhibition in initial screen (p300 HAT [2]) [%] | other results
17 | Cc1cc(C)c(S(=O)(=O)N2CCCC(C(=O)O)C2)c(C)c1 (stereo not shown) [Compound 7188864] | 0.0 | 
18 | O=C(O)c1cccc(NC(=O)c2cc(S(=O)(=O)Nc3cccc([N+](=O)[O-])c3)ccc2Cl)c1 [Compound 5915900] | 0.0 | 
19 | O=C(O)CCC(=O)Nc1ccc(-c2nc3cc(Cl)ccc3o2)cc1 [Compound 6786461] | 66.6 | % inhibition at 25 uM in radioactive assay (p300 HAT [1]; 25 uM): 0.0%; % inhibition with 2x coupling enz (p300 HAT [2]; 0.2 units α-KGDH (two times)): 100.0%; % inhibition with .01% Triton X-100 (p300 HAT [2]; aggregation control, 0.01% Triton X-100): 58.2%
20 | CC(=O)c1ccc(NS(=O)(=O)c2cccc(C(=O)Nc3cccc(C(=O)O)c3)c2)cc1 [Compound 5917216] | 38.6 | 
21 | O=C(O)C1CCCN(S(=O)(=O)c2cccs2)C1 (stereo not shown) [Compound 7195131] | 0.0 | 
22 | CC1=NN(c2ccc(S(=O)(=O)O)cc2)C(=O)C1=Cc1ccc(-c2cc(C)c(C)cc2[N+](=O)[O-])o1 [Compound 6f] |  | p300 HAT inhibition, result in words (analogs compared with C646) (p300 HAT [1]): well tolerated
23 | CC1=NN(CCC(=O)O)C(=O)C1=Cc1ccc(-c2cc(C)c(C)cc2[N+](=O)[O-])o1 [Compound 6k, 3-(4,5-dihydro-3-methyl-4-((5-(4,5-dimethyl-2-nitrophenyl)furan-2-yl)methylene)-5-oxopyrazol-1-yl)propanoic acid] |  | p300 HAT inhibition, result in words (analogs compared with C646) (p300 HAT [1]): cannot successfully replace the benzoate ring of C646 and still retain p300 inhibitory potency; melting point: 189 to 190 °C
24 | CCOC(=O)c1cc(C)c(C)cc1-c1ccc(/C=C2\C(=O)N(c3ccc(C(=O)O)cc3)N=C2C)o1 [Compound 6n, 4-(4,5-dihydro-4-((5-(4,5-dimethyl-2-ethylbenzoate)furan-2-yl)methylene)-3-methyl-5-oxopyrazol-1-yl)benzoic acid] |  | melting point: 241 to 243 °C
25 | COc1ccc(C(CC(=O)O)c2ccc(OC)c(OC)c2)cc1OC [Compound 6971425] | 0.0 | 
26 | O=C(CSC1CC(=O)N(c2ccc(C(=O)O)cc2)C1=O)Nc1ccc(F)cc1 (stereo not shown) [Compound 5310308] | 0.0 | 
27 | O=C(O)CCSCC(=O)c1ccc(NS(=O)(=O)c2ccccc2)cc1 [Compound 7112743] | 0.0 | 
28 | Cc1cc(-c2ccc(C(=O)c3c(C)nn(-c4ccc(C(=O)O)cc4)c3O)o2)c([N+](=O)[O-])cc1C [Compound 6q] |  | weakening of p300 inhibitory potency compared with C646 (relative IC50) (p300 HAT [1]; range of concentrations): 6 fold
29 | O=C(O)CCSc1nc2ccccc2c(=O)[nH]1 [Compound 5485989] | 0.0 | 
30 | COc1ccc(CCNC(=O)c2ccccc2[N+](=O)[O-])cc1OC [Compound 5693758] | 0.0 | 
31 | CC1=NN(c2ccc(C(N)=O)c(Cl)c2)C(=O)/C1=C\c1ccc(-c2cc(C)c(C)cc2[N+](=O)[O-])o1 [Compound 6b, 4-(4,5-dihydro-3-methyl-4-((5-(4,5-dimethyl-2-nitrophenyl)furan-2-yl)methylene)-5-oxopyrazol-1-yl)-2-chloro-benzamide] |  | melting point: 267 to 269 °C
